For eight compounds, IC50 results are on record in patent US10954214B2 (Janssen Pharmaceutica NV, priority 2016, dated 2021).

For experiment [1], the system named is IL6 secretion by TMD8 ABC-DLBCL cells. Briefly: Human IL6 Mesoscale assay (TMD-8). In kind it is cell-based. To be noted: Homo sapiens, TMD8; TMD-8 cells, 24 h. In short, it runs like this: (§1)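 TMD8 or OCI-LY3 cells (100,000/well) were exposed to compounds in 9 twofold dilutions from 15 μM to 58.6 nM (0.3% DMSO) for 24 h at 37 °C. Supernatant IL6 and IL10 were quantified by MSD electrochemiluminescence immunoassay. DMSO defined maximum signal and BTK inhibitor RN486 (30 nM–131 pM) defined maximum inhibition.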

A further experiment has as its system TMD8 cells. Briefly: 4-day proliferation assay, TMD8. Format: cell-based. The note with it: Homo sapiens, 96 h, 4 days incubation, CellTiterGLO, read-out: Anti-proliferation: TMD-8 IC50. As for the experimental part:
(§2) To assess anti-proliferative effects, MALT1 inhibitor test compounds were tested in 4-day proliferation assays using three different DLBCL cell lines.
(§3) Cells should be kept between 0.5-2.5 million cells per mL during culturing and cells should be supplemented every 2-3 days with fresh 50 μM beta-mercaptoenthanol. No beta-mercaptoethanol is used during the proliferation assay. OCI-Ly7 cells were propagated in IMDM (ThermoFisher) supplemented with 10% fetal bovine serum (HyClone), 2 mM L-glutamine (Sigma Aldrich) and 50 μg/mL Gentamycin. Cell passage numbers should not exceed 30 (for OCI-Ly3 cells with passage number lower than 10 were used).
(§4) 10,000 TMD8, 10,000 OCI-Ly3 or 2,000 OCI-Ly7 cells were seeded in 100 μL media per well and incubated for 4 days at 37° C. and 5% CO2. Cell plating numbers were chosen based on growth curves to ensure linear cell growth. After 4 days of incubation 50 μL CellTiterGLO reagent (Promega) were added to each well and luminescence was measured on the Envision after 10 min of incubation at room temperature.
(§5) LC=median of the low control values
(§6) An estimate of the slope of the plot in terms of the Hill coefficient was also obtained.

Experiment [2] addresses full-length MALT1 protein (Strep-MALT1(1-824)-His) (Homo sapiens (Human), UniProt Q9UDY8). Briefly: MALT1 Biochemical Protease Assay (Ac-LRSR-AMC substrate). To be noted: 10 nM FL MALT1, 200 μM Ac-LRSR-AMC, 4 h at RT; read-out: MALT1_Biochemical activity (Ac-LRSR-amc) IC50. In short, it runs like this:
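Fluorescence from AMC release off the quenched LRSR substrate was read after a 4 h reaction at RT. Values were normalised to no-enzyme and uninhibited controls and fitted for IC50 and Hill coefficient.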

For another experiment, the system named is OCI-Ly3 cells. Briefly: 4-day proliferation assay, OCI-Ly3. Format: cell-based, human. The note with it: Homo sapiens, 96 h, 4 days incubation, CellTiterGLO, read-out: Anti-proliferation: OCI-LY-3 IC50. The method, then: as §2, §3, §4, §5, §6
On the technique in general: Cellular ATP, detected with luciferase, serves as a proxy for viable cell number.

The subject of experiment [3] is IL10 secretion by TMD8 ABC-DLBCL cells. Nature of the experiment: Human IL10 Mesoscale assay (TMD-8). Format: cell-based. The note with it: Homo sapiens, TMD8; TMD-8 cells, 24 h. In short, it runs like this: as §1

pIC50: −log10 of the molar value.

Chain of full-length MALT1 protein (Strep-MALT1(1-824)-His) (Q9UDY8 whole entry): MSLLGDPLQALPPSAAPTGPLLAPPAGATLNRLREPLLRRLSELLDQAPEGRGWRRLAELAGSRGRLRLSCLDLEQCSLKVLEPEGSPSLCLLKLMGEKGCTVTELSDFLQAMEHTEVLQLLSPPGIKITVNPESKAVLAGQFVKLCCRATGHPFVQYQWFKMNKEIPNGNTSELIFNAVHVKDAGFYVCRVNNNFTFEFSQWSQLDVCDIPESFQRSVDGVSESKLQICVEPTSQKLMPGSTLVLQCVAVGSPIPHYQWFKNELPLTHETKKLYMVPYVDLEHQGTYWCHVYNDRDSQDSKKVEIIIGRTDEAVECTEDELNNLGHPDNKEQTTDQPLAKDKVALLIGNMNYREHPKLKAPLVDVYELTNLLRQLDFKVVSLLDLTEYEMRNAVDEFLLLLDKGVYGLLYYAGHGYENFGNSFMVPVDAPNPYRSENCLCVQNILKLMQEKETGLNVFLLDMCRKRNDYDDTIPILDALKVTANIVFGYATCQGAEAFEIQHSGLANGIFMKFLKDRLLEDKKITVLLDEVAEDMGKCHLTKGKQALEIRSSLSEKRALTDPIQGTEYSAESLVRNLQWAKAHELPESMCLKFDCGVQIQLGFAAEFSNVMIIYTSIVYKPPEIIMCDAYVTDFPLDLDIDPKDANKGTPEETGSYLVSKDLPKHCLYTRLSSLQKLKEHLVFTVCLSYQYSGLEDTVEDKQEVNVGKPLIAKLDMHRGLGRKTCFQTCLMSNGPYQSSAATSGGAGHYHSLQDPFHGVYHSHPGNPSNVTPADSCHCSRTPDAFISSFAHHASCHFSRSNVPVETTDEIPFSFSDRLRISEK

For `N#Cc1cc(NC(=O)c2cnn(-c3cncc4ccccc34)c2C(F)(F)F)ccc1-n1ccnn1` [Cpd 62, N-(3-cyano-4-(1H-1,2,3-triazol-1-yl)phenyl)-1-(isoquinolin-4-yl)-5-(trifluoromethyl)-1H-pyrazole-4-carboxamide], the pIC50 was 6.95 in experiment [1]; 5.00 in the experiment with TMD8 cells; 7.23 in experiment [2]; 6.64 with OCI-Ly3 cells; 7.07 in experiment [3].

For `Cc1cnc2cccc(-n3ncc(C(=O)Nc4cnc(-n5nccn5)c(Cl)c4)c3C(F)(F)F)c2c1` [Cpd 65, N-(5-Chloro-6-(2H-1,2,3-triazol-2-yl)pyridin-3-yl)-1-(3-methylquinolin-5-yl)-5-(trifluoromethyl)-1H-pyrazole-4-carboxamide], the pIC50 was 6.55 in experiment [1]; 4.99 in the experiment on TMD8 cells; 7.22 in experiment [2]; 6.59 with OCI-Ly3 cells; 6.92 in experiment [3].

For the compound `Cc1ncc(-n2ncc(C(=O)Nc3cnc(-n4nccn4)c(Cl)c3)c2C(F)(F)F)c2ccccc12` [Cpd 66, N-(5-chloro-6-(2H-1,2,3-triazol-2-yl)pyridin-3-yl)-1-(1-methylisoquinolin-4-yl)-5-(trifluoromethyl)-1H-pyrazole-4-carboxamide], the pIC50 in experiment [1] is 6.48; with TMD8 cells, approximately 5.06; in experiment [2], 7.16; in the experiment with OCI-Ly3 cells it was 6.09; in experiment [3] it was 6.88.

For `O=C(Nc1cnc(-n2nccn2)c(Cl)c1)c1cnn(-c2cccc3[nH]ncc23)c1C(F)(F)F` [Cpd 68, N-(5-Chloro-6-(2H-1,2,3-triazol-2-yl)pyridin-3-yl)-1-(1H-indazol-4-yl)-5-(trifluoromethyl)-1H-pyrazole-4-carboxamide], the pIC50 was 6.38 in experiment [1]; approximately 4.72 with TMD8 cells; 6.82 in experiment [2]; 6.43 in the experiment with OCI-Ly3 cells; 6.59 in experiment [3].

As for `O=C(Nc1cnc(-c2nnco2)c(Cl)c1)c1cnn(-c2cncc3ccccc23)c1C(F)(F)F` [Cpd 69, N-(5-Chloro-6-(1,3,4-oxadiazol-2-yl)pyridin-3-yl)-1-(isoquinolin-4-yl)-5-(trifluoromethyl)-1H-pyrazole-4-carboxamide], the pIC50 in experiment [1] is 7.24; in the experiment on TMD8 cells it was approximately 4.79; in experiment [2], 7.22; in the experiment on OCI-Ly3 cells it was 6.37; in experiment [3], 7.20.

Take `O=C(Nc1cnc(-n2ccnc2)c(Cl)c1)c1cnn(-c2cncc3ccccc23)c1C(F)(F)F` [Cpd 70, N-(5-chloro-6-(1H-imidazol-1-yl)pyridin-3-yl)-1-(isoquinolin-4-yl)-5-(trifluoromethyl)-1H-pyrazole-4-carboxamide]: the pIC50 in experiment [1] was 5.96; in the experiment on TMD8 cells it was approximately 4.86; in experiment [2] it was 6.32; in the experiment on OCI-Ly3 cells, approximately 5.87; in experiment [3], 6.05.

Consider `NCCCCNC(=O)c1ncc(NC(=O)c2cnn(-c3cncc4ccccc34)c2C(F)(F)F)cc1Cl` [Cpd 72, N-(4-aminobutyl)-3-chloro-5-(1-(isoquinolin-4-yl)-5-(trifluoromethyl)-1H-pyrazole-4-carboxamido)picolinamide], for which the pIC50 in experiment [1] is 6.07; in the experiment with TMD8 cells it was less than 4.70; in experiment [2], 6.39; in the experiment with OCI-Ly3 cells it was 5.78; in experiment [3], 5.86.

In the case of `Cc1cc(NC(=O)c2cnn(-c3cncc4ccccc34)c2C(F)(F)F)cc(C(F)(F)F)n1` [Cpd 73, 1-(isoquinolin-4-yl)-N-(2-methyl-6-(trifluoromethyl)pyridin-4-yl)-5-(trifluoromethyl)-1H-pyrazole-4-carboxamide], the pIC50 in experiment [1] is 6.38; in the experiment on TMD8 cells, approximately 4.94; in experiment [2] it was 6.14; in the experiment with OCI-Ly3 cells it was 5.71; in experiment [3], 6.47.
